“Also recorded” adds a separate entry of the source. Like-named read-outs stand apart in the source and are kept apart here.
Key:
[1] = Serum stability analysis in human serum; format: in vitro ADME; conditions: human serum (1:10), 37 °C
Procedure: [Lys^37(DTPA)]N-acetyl-GIP1-42 (MW = 5422 g/mol) and GIP1-42 (MW = 5046.7 g/mol) were purchased from Peptide Specialty Laboratories (PSL GmbH, Heidelberg, Germany). DTPA was conjugated to the ε-amino group of the Lysine (K37) and the N-terminal tyrosine was acetylated to reduce its susceptibility to […] (Fig. 1). [Lys^37(DTPA)]GIP1-42 was dissolved in 0.5 M MES (2-(N-morpholino)ethanesulfonic acid) buffer, pH 5.5 and stored at 4 °C until use. […] Radiochemical purity of [Lys^37(^111In-DTPA)]N-acetyl-GIP1-42 was determined by instant thin-layer chromatography (ITLC) (ITLC-SG, Agilent Technologies, Lake Forest, CA, USA), using 0.1 M EDTA in 0.1 M NH4Ac (Sigma Aldrich), pH 5.5 as a mobile agent and by reversed-phase high performance liquid chromatography (RP-HPLC) using an Eclipse XDB C18 column (Agilent Technologies). […]
For the serum stability analysis, [Lys^37(DTPA)]N-acetyl-GIP1-42 was labeled with [^111In]Cl3 at a specific activity of 27 GBq/µmol. Radiochemical purity of [Lys^37(^111In-DTPA)]N-acetyl-GIP1-42 directly after labeling was determined by ITLC-SG (Agilent Technologies) and RP-HPLC as described above. […] This mixture was centrifuged and after dilution, the radiochemical purity of the compound in the supernatant was analyzed using ITLC and RP-HPLC as described above.

[2] = Biodistribution study, NES2Y tumor mice; format: in vivo; conditions: female, mouse, iv, total radioactivity, i.v., 0.2 µg; for tissue uptake at 1 h: BALB/c nude; for tissue to tissue ratio at 1 h: NES2Y tumor BALB/c nude mice
Procedure: All animal experiments were approved by the Animal Welfare Body of the Radboud University, Nijmegen, The Netherlands and carried out in accordance with their guidelines. Six to eight weeks old, female BALB/c nude mice and C3H mice were purchased from Janvier labs (Le Genest Saint Isle, France). For all in vivo experiments, 6-8 weeks old female BALB/c nude mice were injected subcutaneously in the right shoulder with 0.2 ml of a 2.5 × 10^7 cells/ml suspension of BHK-GIPR transfected cells or with 0.2 ml of a 2.5 × 10^7 cells/ml suspension of NES2Y cells mixed with matrigel (2:1) in the right shoulder. When the tumor reached a diameter of 2-5 mm, mice were randomly divided in groups.
BALB/c nude mice bearing BHK-GIPR transfected tumors were injected intravenously with approximately 3 MBq (peptide dose 0.2 µg = 0.04 nmol) of [Lys^37(^111In-DTPA)]N-acetyl-GIP1-42 via the tail vein. At various time points after injection (1, 4 and 24 hours), mice were euthanized by CO2/O2 suffocation and blood, tumor and other relevant tissues were dissected, weighed and measured in a well type gamma counter. The percentage injected dose per gram (%ID/g) was calculated for each tissue. To determine whether the GIP1-42 uptake was GIPR mediated, 25 µg of unlabeled GIP1-42 was co-injected in a separate group (n = 5) and mice were euthanized four hours post-injection. BALB/c nude mice bearing NES2Y tumors (n = 5) were injected intravenously with approximately 3 MBq (peptide dose 0.2 µg = 0.04 nmol) of [Lys^37(^111In-DTPA)]N-acetyl-GIP1-42 via the tail vein. One hour after injection, mice were euthanized by CO2/O2 suffocation and blood, tumor and other relevant tissues were dissected, weighed and measured in a well type gamma counter. The percentage injected dose per gram (%ID/g) was determined for each tissue. To determine whether the GIP1-42 uptake was GIPR mediated, 25 µg of unlabeled GIP1-42 was co-injected in a separate group (n = 2) and mice were euthanized one hours post-injection.

## CC[C@H](C)[C@H](NC(=O)[C@H](CO)NC(=O)[C@H](Cc1ccc(O)cc1)NC(=O)[C@H](CC(=O)O)NC(=O)[C@H](CO)NC(=O)[C@@H](NC(=O)[C@H](Cc1ccccc1)NC(=O)[C@@H](NC(=O)CNC(=O)[C@H](CCC(=O)O)NC(=O)[C@H](C)NC(=O)[C@H](Cc1ccc(O)cc1)NC(C)=O)[C@@H](C)O)[C@@H](C)CC)C(=O)N[C@@H](C)C(=O)N[C@@H](CCSC)C(=O)N[C@@H](CC(=O)O)C(=O)N[C@@H](CCCCN)C(=O)N[C@H](C(=O)N[C@@H](Cc1c[nH]cn1)C(=O)N[C@@H](CCC(N)=O)C(=O)N[C@@H](CCC(N)=O)C(=O)N[C@@H](CC(=O)O)C(=O)N[C@@H](Cc1ccccc1)C(=O)N[C@H](C(=O)N[C@@H](CC(N)=O)C(=O)N[C@@H](Cc1c[nH]c2ccccc12)C(=O)N[C@@H](CC(C)C)C(=O)N[C@@H](CC(C)C)C(=O)N[C@@H](C)C(=O)N[C@@H](CCC(N)=O)C(=O)N[C@@H](CCCCN)C(=O)NCC(=O)N[C@@H](CCCCN)C(=O)N[C@@H](CCCCN)C(=O)N[C@@H](CC(N)=O)C(=O)N[C@@H](CC(=O)O)C(=O)N[C@@H](Cc1c[nH]c2ccccc12)C(=O)N[C@@H](CCCCNC(=O)CN(CCN(CCN(CC(=O)O)CC(=O)O)CC(=O)O)CC(=O)O)C(=O)N[C@@H](Cc1c[nH]cn1)C(=O)N[C@@H](CC(N)=O)C(=O)N[C@H](C(=O)N[C@H](C(=O)N[C@@H](CCC(N)=O)C(=O)O)[C@@H](C)O)[C@@H](C)CC)C(C)C)[C@@H](C)CC [[Lys^37(^111In-DTPA)]N-acetyl-GIP1-42, metal not drawn]
[1]; 24 hours, acetonitrile precipitation, RP-HPLC, read-out: activity found as intact radiolabeled peptide
  remaining at 24 h: 73%
[1]; up to 4 hours, ITLC and RP-HPLC
  stability in human serum: remained intact; also recorded: remained stable
[2]; NES2Y tumor, 0.2 ug, 1 h p.i., mean n=5, read-out: Tumor uptake
  tissue uptake at 1 h: 0.7 ± 0.2 %ID/g
[2]; NES2Y tumor, 1 h p.i. + xs (25 µg unlabeled GIP1-42), mean, n=5, read-out: Tumor uptake
  tissue uptake at 1 h: 0.6 ± 0.01 %ID/g
[2]; duodenum, 0.2 ug, 1 h p.i., mean n=5, read-out: Duodenum uptake
  tissue uptake at 1 h: 0.42 %ID/g
[2]; duodenum, 1 h p.i. + xs (25 µg unlabeled GIP1-42), mean, n=5, read-out: Duodenum uptake
  tissue uptake at 1 h: 0.369 %ID/g
[2]; heart, 0.2 ug, 1 h p.i., mean n=5, read-out: Heart uptake
  tissue uptake at 1 h: 0.135 %ID/g
[2]; heart, 1 h p.i. + xs (25 µg unlabeled GIP1-42), mean, n=5, read-out: Heart uptake
  tissue uptake at 1 h: 0.103 %ID/g
[2]; kidney, 0.2 ug, 1 h p.i., mean n=5, read-out: Kidney uptake
  tissue uptake at 1 h: 184 %ID/g
[2]; kidney, 1 h p.i. + xs (25 µg unlabeled GIP1-42), mean, n=5, read-out: Kidney uptake
  tissue uptake at 1 h: 180 %ID/g
[2]; liver, 0.2 ug, 1 h p.i., mean n=5, read-out: Liver uptake
  tissue uptake at 1 h: 1.1 %ID/g
[2]; liver, 1 h p.i. + xs (25 µg unlabeled GIP1-42), mean, n=5, read-out: Liver uptake
  tissue uptake at 1 h: 0.827 %ID/g
[2]; lung, 0.2 ug, 1 h p.i., mean n=5, read-out: Lung uptake
  tissue uptake at 1 h: 0.485 %ID/g
[2]; lung, 1 h p.i. + xs (25 µg unlabeled GIP1-42), mean, n=5, read-out: Lung uptake
  tissue uptake at 1 h: 0.474 %ID/g
[2]; muscle, 0.2 ug, 1 h p.i., mean n=5, read-out: Muscle uptake
  tissue uptake at 1 h: 0.069 %ID/g
[2]; muscle, 1 h p.i. + xs (25 µg unlabeled GIP1-42), mean, n=5, read-out: Muscle uptake
  tissue uptake at 1 h: 0.057 %ID/g
[2]; pancreas, 0.2 ug, 1 h p.i., mean n=5, read-out: Pancreas uptake
  tissue uptake at 1 h: 0.201 %ID/g
[2]; pancreas, 1 h p.i. + xs (25 µg unlabeled GIP1-42), mean, n=5, read-out: Pancreas uptake
  tissue uptake at 1 h: 0.158 %ID/g
[2]; spleen, 0.2 ug, 1 h p.i., mean n=5, read-out: Spleen uptake
  tissue uptake at 1 h: 0.462 %ID/g
[2]; spleen, 1 h p.i. + xs (25 µg unlabeled GIP1-42), mean, n=5, read-out: Spleen uptake
  tissue uptake at 1 h: 0.341 %ID/g
[2]; stomach, 0.2 ug, 1 h p.i., mean n=5, read-out: Stomach uptake
  tissue uptake at 1 h: 0.336 %ID/g
[2]; stomach, 1 h p.i. + xs (25 µg unlabeled GIP1-42), mean, n=5, read-out: Stomach uptake
  tissue uptake at 1 h: 0.283 %ID/g
[2]; whole blood, 0.2 ug, 1 h p.i., mean n=5, read-out: Blood uptake
  tissue uptake at 1 h: 0.175 %ID/g
[2]; whole blood, 1 h p.i. + xs (25 µg unlabeled GIP1-42), mean, n=5, read-out: Blood uptake
  tissue uptake at 1 h: 0.214 %ID/g
[2]; tumor and blood, 0.2 ug, 1 h p.i., mean n=5, read-out: Tumor/Blood
  tissue to tissue ratio at 1 h: 3.96
[2]; tumor and blood, 1 h p.i. + xs (25 µg unlabeled GIP1-42), mean, n=5, read-out: Tumor/Blood
  tissue to tissue ratio at 1 h: 3.01
[2]; tumor and heart, 0.2 ug, 1 h p.i., mean n=5, read-out: Tumor/Heart
  tissue to tissue ratio at 1 h: 4.83
[2]; tumor and heart, 1 h p.i. + xs (25 µg unlabeled GIP1-42), mean, n=5, read-out: Tumor/Heart
  tissue to tissue ratio at 1 h: 6.09
[2]; tumor and kidney, 0.2 ug, 1 h p.i., mean n=5, read-out: Tumor/Kidney
  tissue to tissue ratio at 1 h: 0.004
[2]; tumor and kidney, 1 h p.i. + xs (25 µg unlabeled GIP1-42), mean, n=5, read-out: Tumor/Kidney
  tissue to tissue ratio at 1 h: 0.004
[2]; tumor and lung, 0.2 ug, 1 h p.i., mean n=5, read-out: Tumor/Lung
  tissue to tissue ratio at 1 h: 1.38
[2]; tumor and lung, 1 h p.i. + xs (25 µg unlabeled GIP1-42), mean, n=5, read-out: Tumor/Lung
  tissue to tissue ratio at 1 h: 1.33
[2]; tumor and muscle, 0.2 ug, 1 h p.i., mean n=5, read-out: Tumor/Muscle
  tissue to tissue ratio at 1 h: 9.43
[2]; tumor and muscle, 1 h p.i. + xs (25 µg unlabeled GIP1-42), mean, n=5, read-out: Tumor/Muscle
  tissue to tissue ratio at 1 h: 11.1

Source: PMC5811606, “Characterization of ^111In-labeled Glucose-Dependent Insulinotropic Polypeptide as a Radiotracer for Neuroendocrine Tumors” (Scientific Reports, 2018)
